Assays:
[1] = target: T1, human dopamine D4 receptor (Homo sapiens, UniProt P21917); assay: D4 dopaminergic activity: [3H]Spiperone competition binding (assay similar to the one described); conditions: assay similar to the [3H]Spiperone binding assay on clonal cell lines expressing the human dopamine D4 receptor
T1 construct: expressed in transfected cells
T1 sequence (P21917 1-419): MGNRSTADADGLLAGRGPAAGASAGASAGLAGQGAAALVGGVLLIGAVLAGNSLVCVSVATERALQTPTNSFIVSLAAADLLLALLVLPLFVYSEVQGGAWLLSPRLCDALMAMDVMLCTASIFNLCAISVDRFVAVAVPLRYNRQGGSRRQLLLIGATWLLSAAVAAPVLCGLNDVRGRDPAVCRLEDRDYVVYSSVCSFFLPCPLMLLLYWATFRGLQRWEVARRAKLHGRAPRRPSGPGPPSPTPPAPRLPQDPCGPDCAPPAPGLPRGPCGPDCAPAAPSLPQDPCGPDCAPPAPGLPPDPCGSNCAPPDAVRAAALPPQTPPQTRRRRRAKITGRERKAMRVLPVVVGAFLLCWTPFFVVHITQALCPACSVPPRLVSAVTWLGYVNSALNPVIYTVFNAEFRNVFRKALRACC
Protocol: The D4 dopaminergic activity of the compounds of the present invention may be determined by the following procedure.
(§1) The determination of D4 dopaminergic activity has been described by Van Tol et al., Nature, vol. 350, 610 (London, 1991). Clonal cell lines expressing the human dopamine D4 receptor are harvested and homogenized (teflon pestle) in a 50 mM Tris:HCI (pH 7.4 at 4°C) buffer containing 5 mM EDTA, 1.5 mM calcium chloride (CaCl2), 5 mM magnesium chloride (MgCL2), 5mM potassium chloride (KCI) and 120 mM sodium chloride (NaCI). The homogenates are centrifugated for 15 min. at 39,000 g, and the resulting pellets resuspended in a buffer at a concentration of 150-250 µg/ml. For saturation experiments, 0.25 ml aliquots of tissue homogenate are incubated in duplicate with increasing concentrations of [^3H] Spiperone (70.3 Ci/mmol; 10-3000 pM final concentration) for 30-120 minutes at 22°C in a total volume of 1 ml. […] Assays are terminated by rapid filtration through a Titertek cell harvester and the filters subsequently monitored for tritium as described by Sunahara, R.K. et al., Nature, 346, 76-80 (1990). […] Both saturation and competition binding data are analyzed by the non-linear least square curve-fitting program Ligand run on a digital Micro-PP-11 as described by Sunahara et al.

D2 receptor = D2 receptor (Homo sapiens, UniProt P14416); assay: D2 receptor binding in an assay similar to the D4 [3H]Spiperone binding assay; conditions: assay similar to the described [3H]Spiperone binding assay
Sequence of D2 receptor (P14416 whole entry): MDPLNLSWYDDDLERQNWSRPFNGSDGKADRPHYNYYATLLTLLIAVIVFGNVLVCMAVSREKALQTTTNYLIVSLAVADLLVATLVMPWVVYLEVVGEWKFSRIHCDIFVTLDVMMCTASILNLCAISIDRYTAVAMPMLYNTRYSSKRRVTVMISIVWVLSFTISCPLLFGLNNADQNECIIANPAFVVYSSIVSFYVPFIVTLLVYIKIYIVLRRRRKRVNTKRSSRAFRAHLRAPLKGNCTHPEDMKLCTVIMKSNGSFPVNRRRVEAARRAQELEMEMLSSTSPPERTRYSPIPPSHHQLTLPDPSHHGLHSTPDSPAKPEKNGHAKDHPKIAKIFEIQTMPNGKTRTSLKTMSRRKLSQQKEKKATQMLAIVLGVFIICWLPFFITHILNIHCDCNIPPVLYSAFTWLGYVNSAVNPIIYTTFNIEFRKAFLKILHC
Protocol: as §1

Row | IC50 [1] | IC50 (D2 receptor) | Compound
1 | ≤ 110 nM | 1000 to 3300 nM | O=c1[nH]c2ccccc2n1CCCN1CCN(c2ccc(C(F)(F)F)cn2)CC1 [Example 4, 1-{3-[4-(5-Trifluoromethyl-pyridin-2-yl)-piperazine-1-yl]-propyl}-1,3-dihydrobenzoimidazol-2-one]
2 | ≤ 110 nM | 1000 to 3300 nM | O=c1[nH]c2ccccc2n1CCCN1CCN(c2ccc(Cl)cn2)CC1 [Example 1, 1-{3-[4-(5-Chloro-pyridin-2-yl)-piperazin-1-yl]-propyl}-1,3-dihydrobenzoimidazol-2-one]

— patent publication EP0765320B1, “BENZIMIDAZOLONE DERIVATIVES WITH CENTRAL DOPAMINERGIC ACTIVITY” (PFIZER INC., priority 1994, dated 1995)
